“Also recorded” adds a separate entry of the source. Read-outs that look alike come from different tables or passages of the source.
Assays:
ATF4, CHOP, GADD34 = experiment: qRT-PCR of pro-death genes downstream of ER stress; type: cell-based, human; conditions: for induction of pro-death ER stress genes: PC9 cells, with GNE-104, very low non-toxic concentrations; for expression of key pro-death ISR genes downstream of ER stress (ATF4, CHOP, GADD34): PC9, HCC4006 and NCI-H1975 cells
Method: RNA extraction and qRT-PCR: RNA was extracted using Qiagen RNeasy Plus kit following manufacturer's instruction. RNA was reverse transcribed using High-Capacity cDNA Reverse Transcription Kit (Thermo Fisher Scientific Cat. No. 4368814). qPCRs were performed using TaqMan™ Fast Advanced Master Mix (Thermo Fisher Scientific Cat. No. 4444557) on ABI QuantStudio 7 Flex Real-Time PCR Systems. HPRT1 was used as the internal control to quantify relative gene expression levels. Taqman probes were obtained from Thermo Fisher Scientific (Cat. No. 431182, 4448490). These probes were used in the study: ATF4 Hs00909569_g1, DDIT3/CHOP Hs00358796_g1, PPP1R15A/GADD34 Hs00169585_m1, SLC7A5 Hs01001183_m1, ETV4 Hs00385910_m1, SPRY4 Hs00540086_m1, DUSP6 Hs04329643_s1, HPRT1 Hs02800695_m1.

PC9 and H1975 cells = experiment: Clonogenic / CellTiter-Glo assay with pharmacological ER stress modulators; type: cell-based
Method: (§1) Clonogenic assay: Cells were seeded at desired densities in two to three replicates in 6-well plates and allowed to attach overnight. The following day cells were treated with the indicated compounds. Media containing the appropriate compounds was replenished every 48-72 hours. At the end of the assay, the cells were washed once with PBS, fixed and stained with crystal violet solution (Sigma Aldrich, HT90132) for 20 minutes, washed with water, and allowed to dry before scanning. For experiments shown in FIG. 18E erlotinib concentration were determined to match the cell viability effect to 1 μM GNE-069 in each cell line, so that 1 μM erlotinib was applied to PC-9 and HCC2935, and 100 nM erlotinib was applied to HCC4006 and HCC827. For experiments shown in FIG. 27B, cells were treated with either DMSO or 1 μM ISRIB (Tocris Cat. No. 5284) for 24 h, and then co-treated with EGFR inhibitors for 8 days. For other experiments cells were treated with 1 μM GNE-104 for 24 h, and then co-treated with 0.5 μg/ml Tunicamycin (Sigma Aldrich, T7765), or 1 nM Thapsigargin (Sigma Aldrich, T9033) for three days.
Cell viability and cell death quantification: For experiments shown in FIGS. 24C, 27D, the indicated cells were seeded at desired densities in replicates in 24-well plates and allowed to attach overnight. The following day cells were treated with the indicated compounds. Media containing the appropriate compounds was replenished every 48 hours. At each media change, cell viabilities were quantified using CellTiter-Glo Luminescent Cell Viability Assay (Promega, G7572). For experiments shown in FIG. 191 and FIG. 29D, PC9 cells were seeded in replicates in 96-well plates and allowed to attach overnight. The following day cells were treated with the indicated compounds or compound combinations at the indicated concentrations. Induction of cell death was quantified 24 h post-treatment using Caspase-Glo 3/7 Assay System (Promega, G8093) and cell survival were measured 72 h post-treatment using CellTiter-Glo Luminescent Cell Viability Assay (Promega, G7572). […]

[1] = Crystal violet % Survival with ISR modulators (Example 3); type: cell-based
Method: Tunicamycin and Thapsigargin were used as inducers of ER stress, and Integrated Stress Response Inhibitor (ISRIB) was used to inhibit ISR activation. Cells were treated with Degrader, Degrader+Tunicamycin, or Degrader+Thapsigargin to assess the effect of ER stress on Degrader efficacy. In another experimental group, cells were treated either with Degrader, Erlotinib, or Erlotinib and ISRIB.

PC9 cells [2] = experiment: TraCe-seq experiment (barcoded PC9 cells, scRNA-seq on day four); type: cell-based, human; conditions: for cell cycle arrest (GO): fraction of cells in GO state inferred by gene expression, day four
Method: To conduct the TraCe-seq experiment, 600 PC9 cells carrying unique barcodes were randomly selected and these cells were expanded for ˜12 doublings to establish the starting population. Single cell transcriptional profiling on a fraction of this population at ˜30× coverage of the barcodes was performed to record the baseline transcriptional programs and relative clonal abundance. 200K of these cells were seeded and were treated with either erlotinib, GNE-104, or GNE-069. Cells were harvested on day four and profiled by 10×scRNA-seq to determine the relative fitness of each clone and capture treatment-induced transcriptional changes (FIG. 17D).
TraCe-Seq barcode assignment: TraCe-Seq barcode recovery from scRNA-Seq FASTQs was performed using Salmon (v. 0.1.1). Briefly, custom augmented Salmon index was created using human reference GRCh38 and transgene GFP fused to one of 100,000 30-nt GC-optimized barcode in library. Transcript expression of demultiplexed per-cell FASTQs were then quantified using custom Salmon index. Cells with single GFP-barcode expression were assigned to corresponding TraCe-Seq barcode. Cells with multiple TraCe-Seq barcodes expressed were assigned to a single TraCe-Seq barcode if expression one TraCe-Seq was 3-fold higher than other detected TraCe-Seq barcodes.

[3] = system: common EGFR mutant variants; experiment: in vitro kinase inhibition assay; type: biochemical; conditions: panel of 218 kinases
EGFR = biological target: T1, EGFR (Homo sapiens, UniProt P00533, DEL746-750); experiment: Western blot of EGFR and pEGFR in HCC827 cells; type: cell-based; conditions: for EGFR degradation: HCC827 cells
T1 construct: does-dependent EGFR degradation induced by GNE-104 in HCC827 cells; endogenous in cells; host or cells: HCC827
Method: Immunoblotting: Immunoblotting performed using standard methods. Cells were briefly washed in ice-cold PBS and lysed in the following lysis buffer (1% NP40, 50 mM Tris, pH 7.8, 150 mM NaCl, 5 mM EDTA) plus protease inhibitor mixture (Complete mini tablets, Roche Applied Science, 11836170001) and phosphatase inhibitor mix (Thermo Fisher Scientific, 78420). Lysates centrifuged at 15,000 rpm for 10 minutes at 4° C. and the protein concentration determined by BCA (Thermo Fisher Scientific, 23227). Equal amounts of protein were resolved by SDS-PAGE on NuPAGE, 4-12% Bis-Tris Gels (Thermo Fisher Scientific, WG-1403) and transferred to nitrocellulose membrane (Bio-Rad, 170-4159). Membranes were blocked in blocking buffer (Li-Cor, 927-40000), incubated overnight with the indicated primary antibodies and analyzed by the addition of secondary antibodies IRDye 680LT Goat anti-Mouse IgG (Li-Cor, 926-68050) or IRDye 800CW Goat anti-Rabbit IgG (Li-Cor, 926-32211). The membranes were visualized on a Li-Cor Odyssey CLx Scanner. Anti-EGFR (MI-12-1) purchased from Medical and Biological Labs, anti-pEGFR (3777), anti β-Tubulin (2146) and anti-β-Actin (4970) purchased from Cell Signaling Technology. IR-conjugated secondary antibodies Goat anti-Mouse 680LT (926-68020), and Goat anti-Rabbit 800CW (926-32211) purchased from Li-Cor.

PC9 cells [4] = experiment: Anti-growth effects in PC9 cells (clonogenic assay, cell counting, Incucyte imaging); type: cell-based, human; conditions: 1 μM
Method: Compound dose matching: […] Clonogenic assay: Cells were seeded at desired densities in two to three replicates in 6-well plates and allowed to attach overnight. The following day cells were treated with the indicated compounds. Media containing the appropriate compounds was replenished every 48-72 hours. At the end of the assay, the cells were washed once with PBS, fixed and stained with crystal violet solution (Sigma Aldrich, HT90132) for 20 minutes, washed with water, and allowed to dry before scanning. […] For experiments shown in FIG. 27B, cells were treated with either DMSO or 1 μM ISRIB (Tocris Cat. No. 5284) for 24 h, and then co-treated with EGFR inhibitors for 8 days.

PC9 cells [5] = experiment: scRNA-seq gene expression in barcoded PC9 cells (Example 3); type: cell-based, human; conditions: for ISR pathway / ATF4 and SLC7A5 expression: Day 5 of treatment; for canonical MAPK target gene expression: day 5 of treatment
Description: The above-described workflow was used to evaluate adaptation of mutated EGFR lung cancer cells to treatment strategies including EGFR kinase inhibition (Erlotinib) and EGFR protein degradation (Degrader G-104 or Degrader) using the PC9 (non-small cell lung carcinoma) cell line model. Six hundred PC9 cells containing unique barcodes were expanded separately for 12 days. The clones were then pooled into groups of cells with replicate barcodes and subjected to a first scRNA-seq on Day 1. Subsequently, the groups of cells were treated with either DMSO (vehicle control), Erlotinib, or Degrader. On Day 5 of the treatment, a second scRNA-seq was performed to evaluate an initial response of the cells to the treatments. Treatment with Erlotinib or Degrader was continued for approximately two more months. At the endpoint of the treatment, a final scRNA-seq was performed on the surviving cells. scRNA-seq data was analyzed with Next Generation Sequencing technologies, and barcode quantities were determined for both treatments, as illustrated in FIGS. 4A-4B.
Single cell RNA-seq data was further analyzed to evaluate how Degrader resistant clones respond differently to Erlotinib versus Degrader. […] Compared to Degrader, Erlotinib activated genes involved in ER protein processing pathways.
Thus, PC9 cells were treated with either siNTC+Erlotinib, siEGFR+Erlotinib, or siEGFR+DMSO, then analyzed for ISR and MAPK genes after 72 hrs (via scRNA-seq), and assessed for cell viability at Day 6. […] Results shown in FIG. 11D illustrate decreased efficacy of Erlotinib when combined with siEGFR, as indicated by greater numbers of viable cells in the Erlotinib+siEGFR treatment group compared to treatment by only Erlotinib.

[6] = system: EGFR-mutant lung cancer cell lines; experiment: Clonogenic and CellTiter-Glo assay in EGFR-mutant lung cancer cell lines; type: cell-based, human; conditions: multiple EGFR-mutant lung cancer cell lines, vs erlotinib or GNE-069
Method: as §1, with “For experiments shown in FIG. 27B, cells were treated with either DMSO or 1 μM ISRIB (Tocris Cat. No. 5284) for 24 h, and then co-treated with EGFR inhibitors for 8 days. For other experiments cells were treated with 1 μM GNE-104 for 24 h, and then co-treated with 0.5 μg/ml Tunicamycin (Sigma Aldrich, T7765), or 1 nM Thapsigargin (Sigma Aldrich, T9033) for three days.” left out
Cell viability and cell death quantification: For experiments shown in FIGS. 24C, 27D, the indicated cells were seeded at desired densities in replicates in 24-well plates and allowed to attach overnight. […] At each media change, cell viabilities were quantified using CellTiter-Glo Luminescent Cell Viability Assay (Promega, G7572). […] Induction of cell death was quantified 24 h post-treatment using Caspase-Glo 3/7 Assay System (Promega, G8093) and cell survival were measured 72 h post-treatment using CellTiter-Glo Luminescent Cell Viability Assay (Promega, G7572). […]

H1975 cells = experiment: Crystal violet viability of H1975 cells, Osimertinib plus Degrader (Example 3); type: cell-based, human; conditions: 100 nM Osimertinib 4 hours, then + 1 uM Degrader 24 hours
Method: H1975 cells were treated first for 4 hours with 100 nM of the kinase inhibitor Osimertinib, then subjected to co-treatment with 100 nM Osimertinib+1 uM of Degrader for 24 hours.

PC9 cells [7] = experiment: Initial response of PC9 cells to Erlotinib (viability, phase contrast imaging); type: cell-based, human; conditions: within five days, compared to the DMSO control
Method: Six hundred PC9 cells containing unique barcodes were expanded separately for 12 days. The clones were then pooled into groups of cells with replicate barcodes and subjected to a first scRNA-seq on Day 1. Subsequently, the groups of cells were treated with either DMSO (vehicle control) or Erlotinib. On Day 5 of the treatment, a second scRNA-seq was performed to evaluate an initial response of the cells to the treatments.

C/C=C(/C)C(=O)O[C@H]1C(C)=C2[C@H]([C@@H]1OC(=O)CCCCCCC)[C@@](C)(OC(C)=O)C[C@H](OC(=O)CCC)[C@@]1(O)[C@H]2OC(=O)[C@@]1(C)O [thapsigargin]
induction of pro-death ER stress genes (ATF4, CHOP, GADD34): greatly induced pro-death ER stress genes
cytotoxic activity of GNE-104 on co-treatment (PC9 and H1975 cells): enhanced the cytotoxic activity of the degrader GNE-104

O=C(COc1ccc(Cl)cc1)NC1CCC(NC(=O)COc2ccc(Cl)cc2)CC1 (centres unmarked) [ISRIB]
efficacy of Erlotinib on addition of ISRIB (cell viability) [1]: loss of efficacy of Erlotinib
activation of ATF4, CHOP, GADD34 induced by EGFR kinase inhibitors (ATF4, CHOP, GADD34; ISRIB for 24 hours before adding EGFR kinase inhibitor): blunted activation of ATF4, CHOP, and GADD34
cell killing by EGFR kinase inhibitors (PC9 and H1975 cells; ISRIB pre-treatment, PC9 and H1975 cells): decreased cell killing in both PC9 and H1975 cells

C=CC(=O)Nc1cc(Nc2nccc(-c3cn(C)c4ccccc34)n2)c(OC)cc1N(C)CCN(C)C [osimertinib]
expression of key pro-death ISR genes downstream of ER stress (ATF4, CHOP, GADD34) (ATF4, CHOP, GADD34): significantly induced expression of key pro-death ISR genes

tunicamycin
induction of pro-death ER stress genes (ATF4, CHOP, GADD34): greatly induced pro-death ER stress genes
cytotoxic activity of GNE-104 on co-treatment (PC9 and H1975 cells; PC9 cells, very low non-toxic concentrations of ER stress inducer): enhanced the cytotoxic activity of the degrader GNE-104

C#Cc1cccc(Nc2ncnc3cc(OCCOC)c(OCCOCC#CC#CCOCC(=O)N[C@H](C(=O)N4C[C@@H](O)CC4C(=O)NCc4ccc(-c5scnc5C)cc4)C(C)(C)C)cc23)c1 (stereo in doubt) [GNE-069, (2R,4S)-1-((S)-2-(2-((6-(2-((4-((3-Ethynylphenyl)amino)-7-(2-methoxyethoxy)quinazolin-6-yl)oxy)ethoxy)hexa-2,4-diyn-1-yl)oxy)acetamido)-3,3-dimethylbutanoyl)-4-hydroxy-N-(4-(4-methylthiazol-5-yl)benzyl)pyrrolidine-2-carboxamide]
cell cycle arrest (GO) (PC9 cells [2]): far greater cell cycle arrest (GO) than GNE-104
potency and selectivity profile in in vitro kinase inhibition assays [3]: comparable potency and selectivity profile as GNE-104
EGFR degradation (EGFR): fails to engage VHL (due the specific stereochemistry in the VHL-binding moiety) and degrade EGFR
anti-growth effects (inhibiting cell growth) (PC9 cells [4]): comparable activity by all three measures

C#Cc1cccc(Nc2ncnc3cc(OCCOC)c(OCCOCC#CC#CCOCC(=O)N[C@H](C(=O)N4C[C@H](O)C[C@@H]4C(=O)NCc4ccc(-c5scnc5C)cc4)C(C)(C)C)cc23)c1 [GNE-104, (2R,4R)-1-((S)-2-(2-((6-(2-((4-((3-Ethynylphenyl)amino)-7-(2-methoxyethoxy)quinazolin-6-yl)oxy)ethoxy)hexa-2,4-diyn-1-yl)oxy)acetamido)-3,3-dimethylbutanoyl)-4-hydroxy-N-(4-(4-methylthiazol-5-yl)benzyl)pyrrolidine-2-carboxamide]
reduction of absolute number and diversity of TraCe-seq barcodes (PC9 cells [2]; day four of treatment): less effective in reducing both the absolute number and the diversity of TraCe-seq barcodes
ISR pathway / ATF4 and SLC7A5 expression (PC9 cells [5]): does not activate the ISR pathway
canonical MAPK target gene expression (PC9 cells [5]): strongly suppressed canonical MAPK target genes
anti-growth effect [6]: reduced anti-growth effect
phospho-EGFR levels (EGFR): potently suppressed phospho-EGFR levels
EGFR degradation (EGFR): significant dose-dependent degradation of EGFR
anti-growth effects (inhibiting cell growth) (PC9 cells [4]): far less efficient in inhibiting cell growth compared to erlotinib and GNE-069; also recorded: less efficacious
effect on kinase inhibitor activity (H1975 cells): attenuated kinase inhibitor activity

C#Cc1cccc(Nc2ncnc3cc(OCCOC)c(OCCOC)cc23)c1 [Erlotinib]
cell cycle arrest (GO) (PC9 cells [2]): far greater cell cycle arrest (GO) than GNE-104
ISR pathway / ATF4 and SLC7A5 expression (PC9 cells [5]): additionally upregulated on Day 5 of Erlotinib treatment
canonical MAPK target gene expression (PC9 cells [5]): strongly suppressed canonical MAPK target genes
expression of key pro-death ISR genes downstream of ER stress (ATF4, CHOP, GADD34) (ATF4, CHOP, GADD34): significantly induced expression of key pro-death ISR genes
anti-growth effects (inhibiting cell growth) (PC9 cells [4]): comparable activity by all three measures
reduction in viability (PC9 cells [7]): greater than 98%
